Experimental data taken from ChEMBL document CHEMBL1770124, “Synthesis and in vitro evaluation of [18F]fluoroethyl triazole labelled [Tyr3]octreotate analogues using click chemistry” (Bioorg Med Chem Lett, 2011).
Where a SMILES comes first, the peptide text is derived from it. Bridges are numbered along the chain shown (N, C = ends). [ ]: non-standard residue; d: D form. The star is where a group is joined. Threoninol(2S,3R) = C[C@@H](O)[C@H](CO)N*

How the values were obtained:
[1] = Displacement of [111In]-DTPA-octreotide from somatostatin receptor in rat AR42J cells; type: cell-based; conditions: ar-42j
[2] = Partition coefficient, log D of the compound; type: physicochemical; conditions: octanol/water
[3] = Displacement of [125I]-somatostatin-14 from somatostatin receptor in rat AR42J cells; type: cell-based; conditions: ar-42j

| SMILES | IC50 [1] [µM] | logD [2] | IC50 [3] [µM] |
| --- | --- | --- | --- |
| C#CC(=O)NCC(=O)N[C@H](Cc1ccccc1)C(=O)N[C@H]1CSSC[C@@H](C(=O)N[C@H](C(=O)O)[C@@H](C)O)NC(=O)[C@H]([C@@H](C)O)NC(=O)[C@H](CCCCN)NC(=O)[C@@H](Cc2c[nH]c3ccccc23)NC(=O)[C@H](Cc2ccc(O)cc2)NC1=O | 0.0014 | – | – |
| C#CCCC(=O)N[C@H](Cc1ccccc1)C(=O)N[C@H]1CSSC[C@@H](C(=O)N[C@H](C(=O)O)[C@@H](C)O)NC(=O)[C@H]([C@@H](C)O)NC(=O)[C@H](CCCCN)NC(=O)[C@@H](Cc2c[nH]c3ccccc23)NC(=O)[C@H](Cc2ccc(O)cc2)NC1=O | 0.0018 | – | – |
| C#CC(=O)NCCC(=O)NCC(=O)N[C@H](Cc1ccccc1)C(=O)N[C@H]1CSSC[C@@H](C(=O)N[C@H](C(=O)O)[C@@H](C)O)NC(=O)[C@H]([C@@H](C)O)NC(=O)[C@H](CCCCN)NC(=O)[C@@H](Cc2c[nH]c3ccccc23)NC(=O)[C@H](Cc2ccc(O)cc2)NC1=O | 0.001 | – | – |
| C[C@@H](O)[C@@H]1NC(=O)[C@@H](NC(=O)[C@@H](Cc2cc3ccccc3[nH]2)NC(=O)CNC(=O)CCNC(=O)c2cn(CC[18F])nn2)CSSC[C@@H](C(=O)N[C@@H](CCCCN)C(=O)O)NC(=O)[C@H](Cc2ccc(O)cc2)NC(=O)[C@H]([C@@H](C)O)NC(=O)[C@@H](Cc2ccccc2)NC1=O | > 10000 | -1.14 | – |
| C[C@@H](O)[C@H](NC(=O)[C@@H]1CSSC[C@H](NC(=O)[C@@H](Cc2ccccc2)NC(=O)CCc2cn(CC[18F])nn2)C(=O)N[C@@H](Cc2ccc(O)cc2)C(=O)N[C@H](Cc2c[nH]c3ccccc23)C(=O)N[C@@H](CCCCN)C(=O)N[C@@H]([C@@H](C)O)C(=O)N1)C(=O)O | 0.0029 | -1.5 | – |
| C[C@@H](O)[C@H](CO)NC(=O)[C@@H]1CSSC[C@H](NC(=O)[C@H](N)Cc2ccccc2)C(=O)N[C@@H](Cc2ccccc2)C(=O)N[C@H](Cc2c[nH]c3ccccc23)C(=O)N[C@@H](CCCCN)C(=O)N[C@@H]([C@@H](C)O)C(=O)N1 (H-[dF]CF[dW]KTC-{Threoninol(2S,3R)}; disulfide 2-7) | – | – | 0.0147 |

Continued, in another order:

| IC50 [1] [µM] | logD [2] | SMILES | IC50 [3] [µM] |
| --- | --- | --- | --- |
| 0.004 | -1.83 | C[C@@H](O)[C@H](NC(=O)[C@@H]1CSSC[C@H](NC(=O)[C@@H](Cc2ccccc2)NC(=O)CNC(=O)c2cn(CC[18F])nn2)C(=O)N[C@@H](Cc2ccc(O)cc2)C(=O)N[C@H](Cc2c[nH]c3ccccc23)C(=O)N[C@@H](CCCCN)C(=O)N[C@@H]([C@@H](C)O)C(=O)N1)C(=O)O | – |
| 0.00523 | – | C#CC(=O)NCC(=O)NCCOCCOCCOCCOCCOCCOCCC(=O)N[C@H](Cc1ccccc1)C(=O)N[C@H]1CSSC[C@@H](C(=O)N[C@H](C(=O)O)[C@@H](C)O)NC(=O)[C@H]([C@@H](C)O)NC(=O)[C@H](CCCCN)NC(=O)[C@@H](Cc2c[nH]c3ccccc23)NC(=O)[C@H](Cc2ccc(O)cc2)NC1=O | – |
| 0.0108 | -2.68 | C[C@@H](O)[C@H](NC(=O)[C@@H]1CSSC[C@H](NC(=O)[C@@H](Cc2ccccc2)NC(=O)CCOCCOCCOCCOCCOCCOCCNC(=O)CNC(=O)c2cn(CC[18F])nn2)C(=O)N[C@@H](Cc2ccc(O)cc2)C(=O)N[C@H](Cc2c[nH]c3ccccc23)C(=O)N[C@@H](CCCCN)C(=O)N[C@@H]([C@@H](C)O)C(=O)N1)C(=O)O | – |
| 0.0051 | – | C#CCCC(=O)NCCOCCOCCOCCOCCOCCOCCC(=O)N[C@H](Cc1ccccc1)C(=O)N[C@H]1CSSC[C@@H](C(=O)N[C@H](C(=O)O)[C@@H](C)O)NC(=O)[C@H]([C@@H](C)O)NC(=O)[C@H](CCCCN)NC(=O)[C@@H](Cc2c[nH]c3ccccc23)NC(=O)[C@H](Cc2ccc(O)cc2)NC1=O | – |
| 0.0132 | -2.77 | C[C@@H](O)[C@H](NC(=O)[C@@H]1CSSC[C@H](NC(=O)[C@@H](Cc2ccccc2)NC(=O)CCOCCOCCOCCOCCOCCOCCNC(=O)CCc2cn(CC[18F])nn2)C(=O)N[C@@H](Cc2ccc(O)cc2)C(=O)N[C@H](Cc2c[nH]c3ccccc23)C(=O)N[C@@H](CCCCN)C(=O)N[C@@H]([C@@H](C)O)C(=O)N1)C(=O)O | – |
